These results are taken from article PMC7472185 (Viruses, 2020).

For data set [1], the target named is HBV RT (Hepatitis B virus genotype C subtype adr, UniProt P12933). Put plainly: T/P and substrate binding assay (cell-free), poly(rA)/oligo(dT) with DIG-dUTP. The note with it: for Inhibitory effect on T/P and substrate binding activity of HBV RT: poly(rA)/oligo(dT); for inhibition at 10 µM / inhibition at 100 µM: read-out: % Inhibition to HBV RT of cell-free assay.

For data set [2], the system named is NTCP-expressing HepG2 (NTCP/G2) cells. Briefly: Cytotoxicity, CellTiter-Glo, NTCP/G2 cells. It is filed as cell-based. The note with it: day 9.
The test system of data set [3] is HB611 cells. Briefly: Cytotoxicity, CellTiter-Glo, HB611 cells. The data set is classed as cell-based, human.
In data set [4] the test system is HBeAg. Put plainly: HBeAg ELISA of supernatant, HBV infection system NTCP/G2. The data set is classed as cell-based, Hepatitis B virus. The note with it: NTCP/G2, day 9.
The test system of data set [5] is HBV. Put plainly: Intracellular core-associated HBV DNA by qPCR, NTCP/G2 infection system. It is filed as cell-based, Hepatitis B virus.
In data set [6] the test system is HBsAg. Put plainly: HBsAg ELISA of supernatant, HB611 cells. It is filed as cell-based, Hepatitis B virus. The note with it: suramin, KB-R7943, compound 3 up to 50, 20, and 25 µM, respectively.
In data set [7] the test system is HBeAg. Briefly: HBeAg ELISA of supernatant, HB611 cells. It is filed as cell-based, Hepatitis B virus. The note with it: suramin, KB-R7943, compound 3 up to 50, 20, and 25 µM, respectively.
Data set [8] deals with HBV. Briefly: Intracellular core-associated HBV DNA by qPCR, HB611 cells. It is filed as cell-based, Hepatitis B virus.
The subject of data set [9] is HBV. Briefly: microbe, parasite or virus in culture. The data set is classed as cell-based, Hepatitis B virus. The note with it: HB611 cells, read-out: IC50 for extracellular HBV production.
Data set [10] is described as follows: Cytotoxicity, CellTiter-Glo, NTCP/G2 cells. The note with it: human, NTCP-expressing HepG2 (NTCP/G2) cells, day 9. The data set is classed as cell-based.
The nature of data set [11]: Cytotoxicity, CellTiter-Glo, HB611 cells. The data set is classed as cell-based, human. The note with it: human; HB611 cells, day 9.
Data set [12] relates to HBV cccDNA. Put plainly: cccDNA by qPCR (Hirt DNA), NTCP/G2 infection system. The data set is classed as cell-based, Hepatitis B virus. The note with it: NTCP/G2 cells.

pIC50: −log10 of the molar value. Read-outs that look alike come from different tables or passages of the source.

HBV RT, sequence (P12933 347-690): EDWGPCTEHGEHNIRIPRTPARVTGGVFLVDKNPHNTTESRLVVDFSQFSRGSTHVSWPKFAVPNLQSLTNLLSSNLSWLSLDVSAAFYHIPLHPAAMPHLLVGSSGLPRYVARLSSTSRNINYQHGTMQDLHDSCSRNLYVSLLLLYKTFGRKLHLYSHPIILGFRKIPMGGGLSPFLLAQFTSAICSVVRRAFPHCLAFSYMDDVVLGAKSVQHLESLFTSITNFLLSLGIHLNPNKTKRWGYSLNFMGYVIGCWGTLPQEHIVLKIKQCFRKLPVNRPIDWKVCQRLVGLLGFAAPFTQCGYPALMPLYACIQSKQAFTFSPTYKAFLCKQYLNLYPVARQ

Regarding `N=C(N)SCCc1ccc(OCc2ccc([N+](=O)[O-])cc2)cc1` [KB-R7943], the “Inhibitory effect on T/P and substrate binding activity of HBV RT” value in data set [1] (10 µM compound) is on record as “showed the higher inhibitory effects”. For the same compound, the CC50 worked out at 37.4 µM in data set [2] and 41.9 µM in [3]. Moreover, the “HBeAg expression in the culture supernatant” value in data set [4] is listed as “did not change”. Further, the “putative IC50, core-associated HBV DNA” value in data set [5] (NTCP/G2, day 9) was determined as 7.37 µM. Further, the “HBsAg secretion” value in data set [6] is on record as “no changes”. Also, in data set [7], the “HBeAg secretion” value is on record as “no changes”. In addition, in data set [8] (HB611 cells), the “Core-associated DNA” value is given as “modest decrease”. Moreover, the pIC50 in data set [9] is 5.43.

Consider `Cc1cc2c(C(C)C)c(O)c(O)c(C=O)c2c(O)c1-c1c(C)cc2c(C(C)C)c(O)c(O)c(C=O)c2c1O` [Gossypol], for which, in [1] (10 µM compound), the “Inhibitory effect on T/P and substrate binding activity of HBV RT” value is “showed the higher inhibitory effects”; the inhibition at 10 µM came out at 92%. Moreover, the inhibition at 100 µM in data set [1] (100 µM compound) amounted to 97%.

For `C=CC1=C(C)c2cc3[nH]c(cc4nc(cc5[nH]c(cc1n2)c(C)c5CCC(=O)O)C(CCC(=O)O)=C4C)c(C)c3C=C` [protoporphyrin IX disodium], the “Inhibitory effect on T/P and substrate binding activity of HBV RT” value in data set [1] (10 µM compound) is listed as “showed the higher inhibitory effects”.

Consider `Nc1c(S(=O)(=O)O)cc(Nc2ccc(Nc3nc(Cl)nc(Nc4cccc(S(=O)(=O)O)c4)n3)c(S(=O)(=O)O)c2)c2c1C(=O)c1ccccc1C2=O` [Reactive blue 2], for which the inhibition at 10 µM in data set [1] (10 µM compound) came out at 53%. Besides, the inhibition at 100 µM in data set [1] (100 µM compound) came out at 100%.

As for `O=C(Nc1cccc(C(=O)Nc2ccc(S(=O)(=O)O)c3cc(S(=O)(=O)O)cc(S(=O)(=O)O)c23)c1)Nc1cccc(C(=O)Nc2ccc(S(=O)(=O)O)c3cc(S(=O)(=O)O)cc(S(=O)(=O)O)c23)c1` [NF023], the “% Inhibition to HBV RT of cell-free assay” value turned out to be 26% in data set [1] (10 µM compound) and 96% in [1] (100 µM compound).

Take `CC(=O)c1c(O)c(C)c(O)c(Cc2c(O)c3c(c(C(=O)/C=C/c4ccccc4)c2O)OC(C)(C)C=C3)c1O` [Rottlerin]: in data set [1], the inhibition at 10 µM worked out at 35% and the inhibition at 100 µM amounted to 98%.

For the compound `Cc1ccc(C(=O)Nc2ccc(S(=O)(=O)O)c3cc(S(=O)(=O)O)cc(S(=O)(=O)O)c23)cc1NC(=O)c1cccc(NC(=O)Nc2cccc(C(=O)Nc3cc(C(=O)Nc4ccc(S(=O)(=O)O)c5cc(S(=O)(=O)O)cc(S(=O)(=O)O)c45)ccc3C)c2)c1` [Suramin], the “Inhibitory effect on T/P and substrate binding activity of HBV RT” value in data set [1] (10 µM compound) is recorded as “showed the higher inhibitory effects”. Moreover, the inhibition at 10 µM in data set [1] (10 µM compound) is 69%. The inhibition at 100 µM in [1] (100 µM compound) came to 97%. Further, the results for the CC50 at 9 days in data set [10] and in data set [11] were greater than 200 µM and 168 µM, respectively. The “HBeAg expression in the culture supernatant” value in [4] is “reduced”. Further, the pIC50 in data set [5] (Hepatitis B virus, 216 h, read-out: putative IC50, core-associated HBV DNA) is 6.57; in data set [8] (Hepatitis B virus, HB611, read-out: IC50 for core-associated DNA) it was 4.58; in [9] (Hepatitis B virus), 4.77. The “cccDNA levels” value in data set [12] was “reduced”. Besides, in data set [6], the “HBsAg secretion” value is reported as “no changes”. Besides, the “HBeAg secretion” value in data set [7] was “no changes”.
